Measured values reported in the supplement of paper PMC10307832.

Assays:
Test in all cases: relative viability (nuclei count vs DMSO), 5 days (fraction); higher = more cells survive
[1] = compound: O=S(=O)(c1ccccc1)N(CC(F)(F)F)c1ccc(C(O)(C(F)(F)F)C(F)(F)F)cc1 + CS(=O)(=O)CCNCc1ccc(-c2ccc3ncnc(Nc4ccc(OCc5cccc(F)c5)c(Cl)c4)c3c2)o1 [Lapatinib] (partner 2 µM)
Summary of the method: (§1)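 Dosing by pin tool came one day after lung cancer cell lines were seeded in 1536-well plates, using either one drug or a fixed anchor-drug dose plus five library-drug doses (not always all listed) in √10 steps. After 5 days, nuclei were counted on 4× images. Relative viability is treated-well nuclei count divided by vehicle-well nuclei count, and values are medians of duplicate plates.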

[2] = compound: C1=CC2=C(C=CC(=C2)C=C3C(=O)NC(=NCC4=CC=CS4)S3)N=C1 [RO-3306] + CS(=O)(=O)N1CCN(Cc2cc3nc(-c4cccc5[nH]ncc45)nc(N4CCOCC4)c3s2)CC1 [Pictilisib] (partner 1 µM)
Summary of the method: as §1

[3] = compound: O=S(=O)(c1ccccc1)N(CC(F)(F)F)c1ccc(C(O)(C(F)(F)F)C(F)(F)F)cc1 + N=C(N)NC(=N)NCCc1ccccc1 [Phenformin] (partner 250 µM)
Summary of the method: as §1

[4] = compound: O=S(=O)(c1ccccc1)N(CC(F)(F)F)c1ccc(C(O)(C(F)(F)F)C(F)(F)F)cc1 + CCNC(=O)c1noc(-c2cc(C(C)C)c(O)cc2O)c1-c1ccc(CN2CCOCC2)cc1 [Luminespib] (partner 0.01 µM)
Summary of the method: as §1

[5] = compound: O=S(=O)(c1ccccc1)N(CC(F)(F)F)c1ccc(C(O)(C(F)(F)F)C(F)(F)F)cc1 + Nc1ncn([C@H]2C[C@H](O)[C@@H](CO)O2)c(=O)n1 [Decitabine] (partner 2 µM)
Summary of the method: as §1

Cell Line | relative viability ([1]; first compound 0.8 µM) | relative viability ([1]; first compound 2.53 µM) | relative viability ([1]; first compound 8 µM) | relative viability ([2]; first compound 0.01 µM) | relative viability ([2]; first compound 0.03162 µM) | relative viability ([2]; first compound 0.1 µM) | relative viability ([2]; first compound 0.3162 µM) | relative viability ([2]; first compound 1 µM) | relative viability ([3]; first compound 0.8 µM) | relative viability ([3]; first compound 2.53 µM) | relative viability ([3]; first compound 8 µM) | relative viability ([4]; first compound 0.8 µM) | relative viability ([4]; first compound 2.53 µM) | relative viability ([4]; first compound 8 µM) | relative viability ([5]; first compound 0.8 µM) | relative viability ([5]; first compound 2.53 µM) | relative viability ([5]; first compound 8 µM)
EBC-1 | 0.307 | 0.353 | 0.337 | 0.454 | 0.327 | 0.397 | 0.448 | 0.286 | – | – | – | – | – | – | – | – | –
EKVX | 0.187 | 0.188 | 0.171 | 0.402 | 0.362 | 0.449 | 0.498 | 0.431 | 0.226 | 0.199 | 0.228 | 0.84 | 0.576 | 0.73 | 0.405 | 0.286 | 0.209
EMC-BAC-2 | 0.975 | 0.864 | 0.904 | 0.503 | 0.511 | 0.54 | 0.531 | 0.483 | 0.701 | 0.493 | 0.557 | 1.28 | 1.18 | 1.17 | 0.973 | 0.908 | 0.974
EPLC-272H | 1.05 | 0.818 | 0.924 | 0.3 | 0.211 | 0.275 | 0.255 | 0.287 | 0.273 | 0.304 | 0.269 | 0.166 | 0.497 | 0.265 | 0.412 | 0.374 | 0.359
H3255 | 0.249 | 0.231 | 0.223 | 0.556 | 0.486 | 0.481 | 0.491 | 0.56 | 0.382 | 0.373 | 0.393 | 0.734 | 0.753 | 0.767 | 0.567 | 0.473 | 0.642
HARA | 0.642 | 0.575 | 0.552 | 0.367 | 0.247 | 0.457 | 0.394 | 0.358 | 0.438 | 0.357 | 0.304 | 0.652 | 0.263 | 0.414 | 0.426 | – | 0.657
HCC-15 | 0.933 | 0.866 | 0.748 | 0.707 | 0.603 | 0.717 | 0.815 | 0.542 | 0.469 | 0.405 | 0.422 | 0.299 | 0.233 | 0.245 | 0.562 | 0.419 | 0.5
HCC-44 | 1.07 | 1.04 | 0.998 | 0.581 | 0.524 | 0.619 | 0.689 | 0.557 | 0.198 | 0.185 | 0.185 | – | 1.13 | 1.08 | 1.03 | 0.968 | 0.991
HCC-78 | 0.61 | 0.592 | 0.614 | 0.198 | 0.213 | 0.209 | 0.224 | 0.229 | 0.631 | 0.612 | 0.581 | – | – | – | 0.748 | 0.714 | 0.599
HCC-366 | 1.29 | 1.13 | 0.951 | 0.118 | 0.0988 | 0.149 | 0.214 | 0.106 | 0.693 | 0.568 | 0.48 | – | – | – | 0.394 | 0.376 | 0.242
